Test results from ChEMBL document CHEMBL1201862, “PubChem BioAssay data set” (2004).
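Each compound was tested at five concentrations against cells in 96-well plates for 48 hours. Abbreviation: GI50, concentration required for 50% inhibition of growth.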 Activity calls are given as the source filed them. Rule as the data show it: active = GI50 up to about 1.1 µM and inactive = higher.

Legend:
Assay in all cases: growth of human tumour cells (NCI), 48 h
A549 = test system: A549
ACHN = test system: ACHN
BT-549 = test system: BT-549
MDA-N = test system: MDA-N
Malme-3M = test system: Malme-3M
NCI-H226 = test system: NCI-H226
NCI-H23 = test system: NCI-H23
NCI-H460 = test system: NCI-H460
OVCAR-5 = test system: OVCAR-5
OVCAR-8 = test system: OVCAR-8
PC-3 = test system: PC-3
RPMI-8226 = test system: RPMI-8226
SF-268 = test system: SF-268
SK-MEL-5 = test system: SK-MEL-5
SK-OV-3 = test system: SK-OV-3
SN12C = test system: SN12C
SR = test system: SR
TK-10 = test system: TK-10
U-251 = test system: U-251
MOLT-4 = test system: MOLT-4

Compound | GI50 (A549) | GI50 (ACHN) | GI50 (BT-549) | GI50 (MDA-N) | GI50 (Malme-3M) | GI50 (NCI-H226) | GI50 (NCI-H23) | GI50 (NCI-H460) | GI50 (OVCAR-5) | GI50 (OVCAR-8) | GI50 (PC-3) | GI50 (RPMI-8226) | GI50 (SF-268) | GI50 (SK-MEL-5) | GI50 (SK-OV-3) | GI50 (SN12C) | GI50 (SR) | GI50 (TK-10) | GI50 (U-251) | GI50 (MOLT-4)
S=C(S)NCCN1CCNCC1 | > 100 µM (inactive) | 36.7 µM (inactive) | 88.1 µM (inactive) | 37.2 µM (inactive) | 25.4 µM (inactive) | > 100 µM (inactive) | > 100 µM (inactive) | 34.6 µM (inactive) | > 100 µM (inactive) | 28.9 µM (inactive) | 34.3 µM (inactive) | 18.6 µM (inactive) | 99.3 µM (inactive) | 52.1 µM (inactive) | > 100 µM (inactive) | 49.2 µM (inactive) | 24.5 µM (inactive) | 20.8 µM (inactive) | > 100 µM (inactive) | 
CCOC(=O)c1cc(C2=C(S)N(CC(C)CC)CC2)c(C(=O)CC)[nH]1 (stereo not given) | 25.1 µM (inactive) | 15.3 µM (inactive) | 19.3 µM (inactive) | 14.3 µM (inactive) | 11.1 µM (inactive) | 23.5 µM (inactive) | 19.5 µM (inactive) | 20.6 µM (inactive) |  | 21.5 µM (inactive) | 19.7 µM (inactive) | 5.36 µM (inactive) | 21.9 µM (inactive) |  | 23.5 µM (inactive) | 18.7 µM (inactive) | 5.96 µM (inactive) | 15.3 µM (inactive) | 13.1 µM (inactive) | 4.56 µM (inactive)
O=C(c1ccccc1)c1ccc2[nH]c(-c3c(Cl)c(Cl)c(Cl)c(Cl)c3-c3nnc(-c4ccccc4)o3)nc2c1 | 25.8 µM (inactive) | 69.7 µM (inactive) | 46 µM (inactive) | 3.45 µM (inactive) | 17.9 µM (inactive) | 22.8 µM (inactive) | 31.7 µM (inactive) |  | 67.5 µM (inactive) | 58.1 µM (inactive) | 20.7 µM (inactive) | 12.4 µM (inactive) | 31.4 µM (inactive) | 6.7 µM (inactive) | 50.8 µM (inactive) | 22.4 µM (inactive) | 4.06 µM (inactive) | 51.1 µM (inactive) | 31.6 µM (inactive) | 14.8 µM (inactive)
Cc1cc2c(cc1-c1cc3c(cc1C)C(C(C)C)=C(O)C(=O)/C3=C\Nc1c3ccccc3nc3ccccc13)/C(=C/Nc1c3ccccc3nc3ccccc13)C(=O)C(O)=C2C(C)C | 2.97 µM (inactive) | 1.49 µM (inactive) | 5.85 µM (inactive) | 4.06 µM (inactive) | 2.2 µM (inactive) | 1.26 µM (inactive) | 3.66 µM (inactive) | 2.09 µM (inactive) | 4.4 µM (inactive) | 2.3 µM (inactive) | 3.25 µM (inactive) | 4.52 µM (inactive) | 3.36 µM (inactive) | 3.99 µM (inactive) | 3.34 µM (inactive) | 4.47 µM (inactive) | 3.91 µM (inactive) |  | 4.02 µM (inactive) | 3.27 µM (inactive)
Cc1cc(C)c(N[S+]([O-])c2cccc(Cl)c2)c(C)c1 (stereo not given) | > 100 µM (inactive) | > 100 µM (inactive) | > 100 µM (inactive) | > 100 µM (inactive) | > 100 µM (inactive) | > 100 µM (inactive) | > 100 µM (inactive) | > 100 µM (inactive) | > 100 µM (inactive) | > 100 µM (inactive) | > 100 µM (inactive) | > 100 µM (inactive) | > 100 µM (inactive) |  |  | > 100 µM (inactive) | > 100 µM (inactive) | > 100 µM (inactive) | > 100 µM (inactive) | > 100 µM (inactive)
CCOC(=O)C1(Cc2ccccc2)Cc2cc3c(cc2C1)CCC3 | 36.8 µM (inactive) | 38.7 µM (inactive) | 25.2 µM (inactive) | 31.1 µM (inactive) | 29.6 µM (inactive) | 25.2 µM (inactive) | 27 µM (inactive) | 31.3 µM (inactive) | 25.2 µM (inactive) | 47.3 µM (inactive) | 25.7 µM (inactive) | 20.6 µM (inactive) | 52.4 µM (inactive) |  | 35 µM (inactive) | 33.3 µM (inactive) | 23.9 µM (inactive) | 92.7 µM (inactive) | 30.8 µM (inactive) | 17.5 µM (inactive)
O=C(C(Cl)=C(N1CCCCC1)N1CCCCC1)C(Cl)Cl | > 100 µM (inactive) | > 100 µM (inactive) | > 100 µM (inactive) | > 100 µM (inactive) | > 100 µM (inactive) | > 100 µM (inactive) | > 100 µM (inactive) | > 100 µM (inactive) |  | > 100 µM (inactive) | > 100 µM (inactive) | > 100 µM (inactive) | > 100 µM (inactive) | > 100 µM (inactive) | > 100 µM (inactive) | > 100 µM (inactive) | > 100 µM (inactive) | > 100 µM (inactive) |  | > 100 µM (inactive)
CC1(C)OC2C(O)C(CO)OC2(C(F)F)O1 (stereo not given) | > 100 µM (inactive) |  | > 100 µM (inactive) | > 100 µM (inactive) | > 100 µM (inactive) | > 100 µM (inactive) |  | > 100 µM (inactive) | > 100 µM (inactive) | > 100 µM (inactive) | > 100 µM (inactive) | > 100 µM (inactive) | > 100 µM (inactive) | > 85.3 µM (inactive) | > 100 µM (inactive) | > 100 µM (inactive) | > 100 µM (inactive) | > 100 µM (inactive) | > 100 µM (inactive) | > 100 µM (inactive)
CNC(=S)NN=C1NCCCCN1 | > 100 µM (inactive) | > 100 µM (inactive) | > 100 µM (inactive) | > 100 µM (inactive) | > 100 µM (inactive) | > 100 µM (inactive) | > 100 µM (inactive) | > 100 µM (inactive) | > 100 µM (inactive) | > 100 µM (inactive) | > 100 µM (inactive) | > 100 µM (inactive) | > 100 µM (inactive) | > 100 µM (inactive) | > 100 µM (inactive) |  | > 100 µM (inactive) | > 100 µM (inactive) | > 100 µM (inactive) | > 100 µM (inactive)
COc1cc(OC2OC(COC(=O)c3cc(O)c(O)c(O)c3)C(O)C(O)C2O)ccc1O (stereo not given) | > 100 µM (inactive) | 55.1 µM (inactive) | 47.3 µM (inactive) | 30.5 µM (inactive) | > 100 µM (inactive) | > 100 µM (inactive) | > 100 µM (inactive) | > 100 µM (inactive) | > 100 µM (inactive) | 89.9 µM (inactive) | 26.2 µM (inactive) | > 100 µM (inactive) | 82 µM (inactive) | > 100 µM (inactive) |  | 77.8 µM (inactive) | > 100 µM (inactive) | 76.7 µM (inactive) | > 100 µM (inactive) | 53.1 µM (inactive)
C=C(C)C12CC(COC(=O)c3ccccc3)C34OC5(OC1C3C1OC1(CO)C(O)C1(O)C(OC(=O)c3ccccc3)C(C)C(C(C)CCCCCCC5O)C14)O2 (stereo not given) |  | 24.3 µM (inactive) | > 100 µM (inactive) | 25.9 µM (inactive) | 25.2 µM (inactive) | 40.7 µM (inactive) | 56.2 µM (inactive) | 33.6 µM (inactive) | 88.7 µM (inactive) | 60.4 µM (inactive) | 38.8 µM (inactive) | 18.8 µM (inactive) | 52.1 µM (inactive) | 11.6 µM (inactive) | > 100 µM (inactive) | 37.8 µM (inactive) | 18.5 µM (inactive) | < 0.01 µM (active) | 32.6 µM (inactive) | 
CC(C)=CCC[C@]1(C)C=Cc2c(O)c3c(c(CC=C(C)C)c2O1)O[C@]12C(=C[C@@H]4CC1C(C)(C)O[C@@]2(C/C=C(/C)C(=O)O)C4=O)C3=O | 0.863 µM (active) | 0.419 µM (active) | 1.91 µM (inactive) | 0.47 µM (active) | 1.19 µM (inactive) | 0.774 µM (active) | 0.938 µM (active) | 1.24 µM (inactive) | 1.5 µM (inactive) | 0.643 µM (active) | 0.802 µM (active) | 0.368 µM (active) | 1.45 µM (inactive) |  | 3.01 µM (inactive) | 0.719 µM (active) | 0.317 µM (active) | 0.861 µM (active) | 0.676 µM (active) | 0.305 µM (active)
C[C@H](CCC(=O)O)[C@H]1CC[C@H]2[C@@H]3[C@H](O)C[C@@H]4C[C@H](O)CC[C@]4(C)[C@H]3CC[C@]12C [CHENODIOL] | 34.8 µM (inactive) | 46.8 µM (inactive) | 36.3 µM (inactive) | 37.7 µM (inactive) | 32.2 µM (inactive) | 22.2 µM (inactive) | 27.9 µM (inactive) | 27.1 µM (inactive) | 52.6 µM (inactive) | 12.1 µM (inactive) | 36.4 µM (inactive) | 22.6 µM (inactive) | 44.1 µM (inactive) |  |  | 43.2 µM (inactive) | 14.6 µM (inactive) | 26.2 µM (inactive) | 37.6 µM (inactive) | 24.7 µM (inactive)
CC1=C2O[C@]3(O)C=C2C(=C(O)C1=O)[C@@H]1O[C@H](CC[C@H](C)/C=C(\C)C[C@@H](C)C[C@@H]3C)[C@H](C)[C@H](O)[C@H]1C [KENDOMYCIN] | 0.982 µM (active) | 0.132 µM (active) | 0.331 µM (active) | 0.166 µM (active) | 0.194 µM (active) | 1.12 µM (active) | 0.316 µM (active) | 0.728 µM (active) | 1.31 µM (inactive) |  | 0.269 µM (active) | 0.118 µM (active) | 0.354 µM (active) | 0.498 µM (active) | 1.12 µM (active) | 0.811 µM (active) | 0.135 µM (active) | 0.155 µM (active) | 0.326 µM (active) | 0.097 µM (active)
